According to PMC6364417, “Kinase inhibitor library screening identifies synergistic drug combinations effective in sensitive and resistant melanoma cells” (Journal of Experimental & Clinical Cancer Research : CR, 2019):

What was measured:
Assay in all cases: Kinase inhibitor library screening, PrestoBlue cell viability, 1 or 10 μM, 72 h
[1] = test system: 501Mel-XP cells (Vemurafenib-resistant); conditions: 72 h
[2] = test system: IGR37-GP cells (Dabrafenib-resistant)
[3] = test system: A375-GP cells (Dabrafenib-resistant)
[4] = test system: 501Mel-GP cells (Dabrafenib-resistant); conditions: 72 h
[5] = test system: A375 cells (parental)
[6] = test system: IGR37 cells (parental)
[7] = test system: IGR37-XP cells (Vemurafenib-resistant)
[8] = test system: A375-XP cells (Vemurafenib-resistant)
[9] = test system: 501Mel cells (parental); conditions: 72 h
Procedure, shortened: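 PrestoBlue viability readout after 72 h exposure to each inhibitor at 1 or 10 μM, reported relative to untreated cells as % viability. Lines tested: sensitive parental plus derivatives resistant to Vemurafenib (XP) or Dabrafenib (GP), each run at least in duplicate.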

| Structure (SMILES) | cell viability (kinase inhibitor library screening) ([1]; 501Mel XP, 1μΜ) | cell viability (kinase inhibitor library screening) ([1]; 501Mel XP, 10μΜ) | cell viability (kinase inhibitor library screening) ([2]; IGR37 GP, 1μΜ, 72 h) | cell viability (kinase inhibitor library screening) ([2]; IGR37 GP, 10μΜ, 72 h) | cell viability (kinase inhibitor library screening) ([3]; A375 GP, 1μΜ, 72 h) | cell viability (kinase inhibitor library screening) ([3]; A375 GP, 10μΜ, 72 h) | cell viability (kinase inhibitor library screening) ([4]; 501Mel GP, 1μΜ) | cell viability (kinase inhibitor library screening) ([4]; 501Mel GP, 10μΜ) | cell viability (kinase inhibitor library screening) ([5]; A375 Parental, 10μΜ, 72 h) | cell viability (kinase inhibitor library screening) ([6]; IGR37 Parental, 1μΜ, 72 h) | cell viability (kinase inhibitor library screening) ([6]; IGR37 Parental, 10μΜ, 72 h) | cell viability (kinase inhibitor library screening) ([7]; IGR37 XP, 1μΜ, 72 h) | cell viability (kinase inhibitor library screening) ([7]; IGR37 XP, 10μΜ, 72 h) | cell viability (kinase inhibitor library screening) ([8]; A375 XP, 1μΜ, 72 h) | cell viability (kinase inhibitor library screening) ([8]; A375 XP, 10μΜ, 72 h) | cell viability (kinase inhibitor library screening) ([9]; 501Mel Parental, 1μΜ) | cell viability (kinase inhibitor library screening) ([9]; 501Mel Parental, 10μΜ) | cell viability (kinase inhibitor library screening) ([5]; A375 Parental, 1μΜ, 72 h) | further results |
| --- | --- | --- | --- | --- | --- | --- | --- | --- | --- | --- | --- | --- | --- | --- | --- | --- | --- | --- | --- |
| Cc1ccc(F)c(NC(=O)Nc2ccc(-c3cccc4[nH]nc(N)c34)cc2)c1 [Linifanib (ABT-869)] |  |  |  |  |  |  |  |  |  |  |  |  |  |  |  |  |  |  | Cell viability in kinase inhibitor library screening, 501Mel XP, 10μΜ ([1]; 501Mel XP, 10μΜ, in %): 3.8; Cell viability in kinase inhibitor library screening, IGR37 GP, 10μΜ ([2]; IGR37 GP, 10μΜ, 72 h): 52.4%; Cell viability in kinase inhibitor library screening, A375 GP, 1μΜ ([3]; A375 GP, 1μΜ, 72 h): 102.6; Cell viability in kinase inhibitor library screening, A375 GP, 10μΜ ([3]; A375 GP, 10μΜ, 72 h): 38.3; Cell viability in kinase inhibitor library screening, 501Mel GP, 1μΜ ([4]; 501Mel GP, 1μΜ, in %): 106.7; Cell viability in kinase inhibitor library screening, 501Mel GP, 10μΜ ([4]; 501Mel GP, 10μΜ, in %): 11.3; Cell viability in kinase inhibitor library screening, A375 Parental, 10μΜ ([5]; A375 Parental, 10μΜ, 72 h): 46.3; Cell viability in kinase inhibitor library screening, A375 Parental, 1μΜ ([5]; A375 Parental, 1μΜ, 72 h): 106.9; Cell viability in kinase inhibitor library screening, IGR37 Parental, 1μΜ ([6]; IGR37 Parental, 1μΜ, 72 h, in %): 99.9; Cell viability in kinase inhibitor library screening, IGR37 Parental, 10μΜ ([6]; IGR37 Parental, 10μΜ, 72 h, in %): 60.3; Cell viability in kinase inhibitor library screening, IGR37 XP, 10μΜ ([7]; IGR37 XP, 10μΜ, 72 h): 30.7%; Cell viability in kinase inhibitor library screening, IGR37 XP, 1μΜ ([7]; IGR37 XP, 1μΜ, 72 h, in %): 102.6; Cell viability in kinase inhibitor library screening, A375 XP, 1μΜ ([8]; A375 XP, 1μΜ, 72 h): 110.5; Cell viability in kinase inhibitor library screening, A375 XP, 10μΜ ([8]; A375 XP, 10μΜ, 72 h): 59.8; Cell viability in kinase inhibitor library screening, 501Mel Parental, 1μΜ ([9]; 501Mel Parental, 1μΜ, in %): 98.1 |
| C[C@]1(O)C[C@@H](c2nc(-c3ccc4ccc(-c5ccccc5)nc4c3)c3c(N)nccn32)C1 [Linsitinib (OSI-906)] |  |  |  |  |  |  |  |  |  |  |  |  |  |  |  |  |  |  | viability at 1 µM ([1]; Homo sapiens, read-out: cell viability, 501Mel XP, 1μΜ): 75.2%; viability at 10 µM ([1]; Homo sapiens, read-out: cell viability, 501Mel XP, 10μΜ): 32.6%; viability at 1 µM ([2]; Homo sapiens, IGR-37, 72 h, read-out: cell viability, IGR37 GP, 1μΜ): 81.6%; viability at 10 µM ([2]; Homo sapiens, IGR-37, 72 h, read-out: cell viability, IGR37 GP, 10μΜ): 25.5%; viability at 1 µM ([3]; Homo sapiens, A-375, 72 h, read-out: cell viability, A375 GP, 1μΜ): 67.1%; viability at 10 µM ([3]; Homo sapiens, A-375, 72 h, read-out: cell viability, A375 GP, 10μΜ): 34.4%; viability at 1 µM ([4]; Homo sapiens, read-out: cell viability, 501Mel GP, 1μΜ): 83.6%; viability at 10 µM ([4]; Homo sapiens, read-out: cell viability, 501Mel GP, 10μΜ): 54.2%; viability at 1 µM ([5]; Homo sapiens, A-375, 72 h, read-out: cell viability, A375 Parental, 1μΜ): 84.1%; viability at 10 µM ([5]; Homo sapiens, A-375, 72 h, read-out: cell viability, A375 Parental, 10μΜ): 42.3%; viability at 1 µM ([6]; Homo sapiens, IGR-37, 72 h, read-out: cell viability, IGR37 Parental, 1μΜ): 107%; viability at 10 µM ([6]; Homo sapiens, IGR-37, 72 h, read-out: cell viability, IGR37 Parental, 10μΜ): 67.7%; viability at 1 µM ([7]; Homo sapiens, IGR-37, 72 h, read-out: cell viability, IGR37 XP, 1μΜ): 66.7%; viability at 10 µM ([7]; Homo sapiens, IGR-37, 72 h, read-out: cell viability, IGR37 XP, 10μΜ): 6.7%; viability at 1 µM ([8]; Homo sapiens, A-375, 72 h, read-out: cell viability, A375 XP, 1μΜ): 77.2%; viability at 10 µM ([8]; Homo sapiens, A-375, 72 h, read-out: cell viability, A375 XP, 10μΜ): 44.6%; viability at 1 µM ([9]; Homo sapiens, read-out: cell viability, 501Mel Parental, 1μΜ): 70.7%; viability at 10 µM ([9]; Homo sapiens, read-out: cell viability, 501Mel Parental, 10μΜ): 45.5% |
| COCCNCc1ccc(-c2cc3nccc(Oc4ccc(NC(=S)NC(=O)Cc5ccc(F)cc5)cc4F)c3s2)nc1 [MGCD-265] | 76.7% | 64.2% | 91.8% | 78.3% | 95.5% | 85.6% | 89.8% | 68.8% | 83.0% | 96.8% | 92.1% | 91.5% | 50.3% | 104.8% | 98.2% | 104.7% | 94.4% |  |  |
| CN(C[C@@H]1COCCO1)S(=O)(=O)Nc1ccc2ccc3ncc(-c4cnn(C)c4)cc3c(=O)c2c1 [MK-2461] | 77.5% | 30.0% |  | 28.3% |  | 78.6% | 90.6% | 45.5% | 78.1% | 103.2% | 84.5% | 99.3% | 6.5% | 106.1% | 88.4% | 102.9% | 83.3% | 106.3% |  |
| O=C(O)[C@]1(Cc2cccc(Nc3nccs3)n2)CC[C@@H](Oc2cccc(Cl)c2F)CC1 [MK-5108 (VX-689)] | 72.1% | 52.0% |  | 93.5% | 92.6% | 63.9% | 83.4% | 63.6% | 56.1% | 98.6% | 94.9% | 100.4% | 80.0% | 99.5% | 68.2% | 94.9% | 74.6% | 91.4% |  |
| O=C(O)c1ccc(Nc2ncc3c(n2)-c2ccc(Cl)cc2C(c2c(F)cccc2F)=NC3)cc1 [MLN8054] | 74.5% | 59.4% | 94.0% | 66.7% | 70.2% | 45.2% | 86.0% | 65.6% | 41.6% | 98.2% | 64.8% | 94.1% | 42.0% | 75.7% | 52.2% | 86.3% | 77.0% | 66.5% |  |
| COc1cc(Nc2ncc3c(n2)-c2ccc(Cl)cc2C(c2c(F)cccc2OC)=NC3)ccc1C(=O)O [MLN8237 (Alisertib)] | 67.2% | 49.0% | 89.7% | 56.0% | 42.7% | 41.7% | 82.8% | 52.7% | 40.1% | 70.3% | 54.5% | 86.2% | 31.0% | 51.0% | 50.5% | 82.2% | 73.9% | 43.3% |  |
| Cc1ccc(NC(=O)c2ccc(CN3CCN(C)CC3)cc2)cc1Nc1nc(-c2cccnc2)cs1 [Masitinib (AB1010)] | 94.5% | 20.4% |  | 77.4% | 98.6% | 85.2% | 103.1% | 85.2% | 87.9% | 98.6% | 92.0% | 103.2% | 49.1% | 105.3% | 94.5% |  | 88.8% |  |  |
